The results in this text go back to ChEMBL document CHEMBL5604063, “ASAP - DENV-2 NS2B-NS3 protease fluorescence dose response” (2024).

Where “and” joins values, the source holds several entries; their conditions need not be identical. Identical values can stand only once.

This assay deals with Genome polyprotein (dengue virus type 2, UniProt P29990). Type of assay: functional, Thailand/16681/1984.
Genome polyprotein, sequence (P29990 1346-1475 limits assumed): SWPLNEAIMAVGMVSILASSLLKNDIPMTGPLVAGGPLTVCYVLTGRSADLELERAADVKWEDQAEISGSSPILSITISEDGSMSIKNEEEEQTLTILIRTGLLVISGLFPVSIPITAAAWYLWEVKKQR
Genome polyprotein, sequence (P29990 1476-2093 limits assumed): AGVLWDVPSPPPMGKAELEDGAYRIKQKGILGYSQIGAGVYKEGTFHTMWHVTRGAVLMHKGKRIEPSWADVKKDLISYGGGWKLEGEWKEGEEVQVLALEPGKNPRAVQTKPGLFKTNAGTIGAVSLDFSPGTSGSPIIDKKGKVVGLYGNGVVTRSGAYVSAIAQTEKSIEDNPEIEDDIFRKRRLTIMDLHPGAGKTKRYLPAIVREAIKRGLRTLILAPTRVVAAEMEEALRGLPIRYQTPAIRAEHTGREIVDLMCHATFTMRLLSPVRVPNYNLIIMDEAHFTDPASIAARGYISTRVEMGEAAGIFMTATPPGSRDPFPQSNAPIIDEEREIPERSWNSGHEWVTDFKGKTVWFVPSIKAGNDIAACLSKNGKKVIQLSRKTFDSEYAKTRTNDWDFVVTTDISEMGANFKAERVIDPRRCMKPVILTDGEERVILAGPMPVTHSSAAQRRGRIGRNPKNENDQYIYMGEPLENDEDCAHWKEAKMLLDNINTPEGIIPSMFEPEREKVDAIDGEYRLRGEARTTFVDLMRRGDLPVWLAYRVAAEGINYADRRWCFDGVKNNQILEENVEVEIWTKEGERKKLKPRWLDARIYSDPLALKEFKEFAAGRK
As usually defined, the IC50 is the midpoint of a concentration-inhibition curve. A lower IC50 goes with higher potency. Consider `NCc1ccc(-c2ncc(OCC3CCNCC3)nc2-c2ccc(-c3ccoc3)cc2)cc1`, for which the 50% inhibitory concentration (IC50) was greater than 99.5 µM.
Under `NCc1ccc(-c2ncc(OCC3CCNCC3)nc2-c2ccc(C3CCOCC3)cc2)cc1` stands greater than 99.5 µM.
As to `Cc1cc(Cl)c(C)c(C(=O)O)c1NS(=O)(=O)c1ccc(Oc2ccccc2Cl)cc1`, the IC50 came to 36.5 µM.
`NCc1cccc(NC(=O)[C@H](NC(=O)OCc2ccccc2)C(C2CCC2)C2CCC2)c1` yielded an IC50 greater than 99.5 µM.
`CN1CCN(C2CN(C(=O)c3cc(Br)cc(C=O)c3)C2)CC1` returned an IC50 greater than 99.5 µM.
Under `CCn1cc(-c2ccnc(N(C)C)c2)nc(N2CC[C@@H](CO)C2)c1=O` stands greater than 99.5 µM; under `O=C(O)c1cc(Cl)ccc1CS(=O)(=O)c1ccc(Oc2ccccc2Cl)cc1`, greater than 99.5 µM.
`CCn1cc(-c2ccc(OC)c(C)c2)nc(N2CC[C@@H](CO)C2)c1=O` gave a half-inhibitory concentration (IC50) greater than 99.5 µM.
Take `CC(C)(C)OC(=O)NCc1cccc(NC(=O)[C@@H](NC(=O)OCc2ccccc2)c2ccc(O)cc2)c1`: the IC50 is greater than 99.5 µM.
Under `Cc1cc(C(=O)O)c(NS(=O)(=O)c2ccc(Oc3ccccc3Cl)cc2)cc1F` stands 8.69 µM.
Under `NCc1cccc(NC(=O)[C@@H](NC(=O)OCc2ccccc2)c2ccc(-c3ccnc(N)c3)cc2)c1` stands greater than 99.5 µM; under `CCOc1ccc(F)cc1-c1cn(CC)c(=O)c(N2CC[C@@H](CO)C2)n1`, greater than 99.5 µM.
For `CCc1ccc(-c2ccc([C@@H](NC(=O)OCc3ccccc3)C(=O)Nc3cccc(CN)c3)cc2)cc1`, half-maximal inhibition (IC50) was put at 6.61 µM.
Take `CCn1cc(-c2cncc(OC)c2)nc(N2CC[C@@H](CO)C2)c1=O`: the 50% inhibitory concentration (IC50) is greater than 99.5 µM.
Consider `O=S(=O)(Nc1ccc(Cl)cc1CO)c1ccc(Oc2ccccc2Cl)cc1`, for which 78.8 µM corresponded to half-maximal inhibition (IC50).
`CN1CCN(C2CCN(C(=O)c3cc(C=O)n(C)c3)CC2)CC1` showed an IC50 greater than 99.5 µM.
Under `Cn1nccc1-c1ccc([C@@H](NC(=O)OCc2ccccc2)C(=O)Nc2cccc(CN)c2)cc1` stands greater than 99.5 µM; under `CCn1cc(-c2ccc3c(c2)CCNC3)nc(N2CC[C@@H](CO)C2)c1=O`, greater than 99.5 µM; under `NCc1cccc(NC(=O)[C@@H](NC(=O)OCc2ccccc2)c2c(F)cccc2F)c1`, greater than 99.5 µM.
As for `c1ccc2c(CN3CCC(c4nn[nH]n4)CC3)c[nH]c2c1`, the IC50 is greater than 99.5 µM.
Under `COC(=O)c1cc(Cl)ccc1NS(=O)(=O)c1ccc(O)cc1` stands greater than 99.5 µM.
In turn, `CCn1cc(Cl)nc(N2CC[C@@H](CO)C2)c1=O` displayed a half-maximal inhibitory concentration (IC50) greater than 99.5 µM.
Under `CCn1cc(-c2cnn(C)n2)nc(N2CC[C@@H](CO)C2)c1=O` stands greater than 99.5 µM; under `O=C(O)c1cc(Cl)cc(NS(=O)(=O)c2ccc(Oc3ccccc3Cl)cc2)c1`, greater than 99.5 µM; under `O=C(O)c1cc(OC2CCOCC2)c(F)cc1NS(=O)(=O)c1ccc(Oc2ccccc2Cl)cc1`, 13.7 µM.
Under `CCn1cc(-c2ccc3ocnc3c2)nc(N2CC[C@@H](CO)C2)c1=O` stands greater than 99.5 µM; under `CCOc1cccc(N2CC[C@@H](CO)C2)c1`, greater than 99.5 µM; under `CCn1cc(-c2cccc(-n3cccn3)c2)nc(N2CC[C@@H](CO)C2)c1=O`, greater than 99.5 µM.
Under `NCc1cccc(NC(=O)[C@@H](NC(=O)OCc2ccccc2)c2cccc(Br)c2)c1` stands 85.8 µM.
Regarding `N#Cc1cc(F)cc(N2CC[C@H](CO)C2)c1`, the IC50 was greater than 99.5 µM.
`CCn1cc(-c2cccc(OC)c2F)nc(N2CC[C@@H](CO)C2)c1=O` gave a concentration for half-maximal inhibition (IC50) greater than 99.5 µM.
`O=C(O)c1cc(Cl)c(Cl)cc1NS(=O)(=O)c1ccc(Oc2ccccc2Cl)cc1` displayed an IC50 of 6.6 µM. In other words, the single-digit micromolar range.
Under `CCn1cc(-c2cnn(-c3ccccc3)c2)nc(N2CC[C@@H](CO)C2)c1=O` stands greater than 99.5 µM; under `O[C@@H]1CN(Cc2c[nH]c3ccccc23)C[C@H]1c1c[nH]c2ccccc12`, greater than 99.5 µM.
Consider `CCn1cc(-c2cn(C)nc2C)nc(N2CC[C@@H](CO)C2)c1=O`, for which the IC50 is greater than 99.5 µM.
`Cc1cnc(Oc2ccc(S(=O)(=O)Nc3ccc(Cl)cc3C(=O)O)cc2)cn1` came in with an IC50 greater than 99.5 µM.
`CCn1cc(-c2ccnc(C)c2)nc(N2CC[C@@H](CO)C2)c1=O` returned a half-inhibitory concentration (IC50) greater than 99.5 µM.
Under `NCc1cccc(NC(=O)[C@H](NC(=O)OCc2ccccc2)c2ccc(OCc3ccccc3)cc2)c1` stands 8.05 µM; under `O=C(O)c1cc(Cl)ccc1NS(=O)(=O)c1ccc(Oc2ccccc2Cl)nc1`, 46.9 µM.
Under `Cc1cc(C)c(C(=O)N2C[C@H]3CN(C)CC[C@@]3(CO)C2)cc1C=O` stands greater than 99.5 µM; under `O=C(O)c1cc(Oc2ccc(F)cc2)c(F)cc1NS(=O)(=O)c1ccc(Oc2ccccc2Cl)cc1`, 3.76 µM; under `COC(=O)c1cc(Cl)ccc1NS(=O)(=O)c1ccc(Br)cc1`, greater than 99.5 µM.
Under `COc1cccc(-c2ccc([C@@H](NC(=O)OCc3ccccc3)C(=O)Nc3cccc(CN)c3)cc2)c1` stands 9.12 µM and 6.13 µM and 6.64 µM; under `CN(C)C[C@@]1(O)CCN(C(=O)c2cc(C=O)c[nH]2)C1`, greater than 99.5 µM; under `Cc1cccc(-c2ccc([C@@H](NC(=O)OCc3ccccc3)C(=O)Nc3cccc(CN)c3)cc2)c1`, 9.31 µM.
`COC(=O)c1cc(Cl)ccc1NS(=O)(=O)c1ccc(Oc2ccccc2Cl)nc1` displayed a half-inhibitory concentration (IC50) greater than 99.5 µM.
Under `COC(=O)[C@@H]1CC2(CC[C@@H]1NS(=O)(=O)c1ccc(Oc3ccccc3Cl)cc1)CC2` stands greater than 99.5 µM; under `CCn1cc(C(=O)NC)nc(N2CC[C@@H](CO)C2)c1=O`, greater than 99.5 µM.
Under `NCc1cccc(CNC(=O)[C@H](NC(=O)OCc2ccccc2)c2ccc(OCc3ccccc3)cc2)c1` stands 15.3 µM; under `NCc1cccc(N2CCN(C(=O)OCc3ccccc3)[C@H](c3ccc(OCc4ccccc4)cc3)C2=O)c1`, 74.7 µM; under `NCc1cccc(NC(=O)[C@]2(NC(=O)OCc3ccccc3)CCOc3ccccc32)c1`, greater than 99.5 µM.
Under `O=C(O)c1cc(Cl)ccc1NS(=O)(=O)c1ccc(N[C@H]2CCOC2)nc1` stands greater than 99.5 µM; under `COc1cc(Cl)cc(C(=O)O)c1NS(=O)(=O)c1ccc(Oc2ccccc2Cl)cc1`, 22.6 µM; under `O=C(NCC1CC1)c1cc(Cl)cc(NS(=O)(=O)c2ccc(Oc3ccccc3Cl)cc2)c1`, 23.5 µM.
Regarding `CCn1cc(C2=CCCNC2)nc(N2CC[C@@H](CO)C2)c1=O`, the 50% inhibitory concentration (IC50) is greater than 99.5 µM.
In turn, `NCc1cccc(NC(=O)CN2CCN(C(=O)OCc3ccccc3)CC2)c1` returned a half-maximal inhibitory concentration (IC50) greater than 99.5 µM.
Under `O=C(NCC(F)(F)F)c1cc(Cl)c(F)cc1NS(=O)(=O)c1ccc(Oc2ccccc2Cl)cc1` stands 5.18 µM; under `CCn1cc(-c2ccc3nn(C)cc3c2)nc(N2CC[C@@H](CO)C2)c1=O`, greater than 99.5 µM.
Under `CCn1cc(-c2cc(F)ccc2C)nc(N2CC[C@@H](CO)C2)c1=O` stands greater than 99.5 µM; under `O=C(NCc1cc(Cl)ccc1NS(=O)(=O)c1ccc(Oc2ccccc2Cl)cc1)C1CC1`, greater than 99.5 µM.
In the case of `NCc1cccc(NC(=O)[C@H](NC(=O)OCc2ccccc2)C2CCCCC2)c1`, the IC50 was greater than 99.5 µM.
Regarding `CN(c1ncnc(-c2ccsc2C=O)n1)C1CCNCC1`, the 50% inhibitory concentration (IC50) was greater than 99.5 µM.
As for `O=C(O)c1ccsc1NS(=O)(=O)c1ccc(Oc2ccccc2Cl)cc1`, the half-inhibitory concentration (IC50) stood at 20.1 µM.
For `CCn1cc(-c2c[nH]c3ncccc23)nc(N2CC[C@@H](CO)C2)c1=O`, the 50% inhibitory concentration (IC50) was greater than 99.5 µM.
Under `O=C(O)c1cc(F)c(F)cc1NS(=O)(=O)c1ccc(Oc2ccccc2Cl)cc1` stands 11.2 µM; under `CCn1cc(-c2ccc(C(F)F)nc2)nc(N2CC[C@@H](CO)C2)c1=O`, greater than 99.5 µM; under `C[C@@H](NC(=O)c1ccc2[nH]cc(C=O)c2c1)C1=CCN(C)CC1`, greater than 99.5 µM.
`CCc1ccc(-c2cn(CC)c(=O)c(N3CC[C@@H](CO)C3)n2)s1` had a half-maximal inhibitory concentration (IC50) greater than 99.5 µM.
Under `NCc1cccc(NC(=O)[C@@H](NC(=O)OCc2ccccc2)c2ccc(-c3cncnc3)cc2)c1` stands greater than 99.5 µM; under `O=C(O)c1nscc1NS(=O)(=O)c1ccc(Oc2ccccc2Cl)cc1`, 63.2 µM; under `OC[C@H]1CCN(c2ccnc(C(F)F)c2)C1`, greater than 99.5 µM.
Under `C[C@H]1CN(C(=O)Cc2ccc(C=O)[nH]2)CCN1C1CCCC1` stands greater than 99.5 µM; under `CCn1cc(-c2cnccc2C)nc(N2CC[C@@H](CO)C2)c1=O`, greater than 99.5 µM; under `CCn1cc(-c2cnc3ccnn3c2)nc(N2CC[C@@H](CO)C2)c1=O`, greater than 99.5 µM.
The compound `O=C(O)c1cscc1NS(=O)(=O)c1ccc(Oc2ccccc2Cl)cc1` displayed a concentration for half-maximal inhibition (IC50) of 34.1 µM.
Consider `CC1(C)CCC([C@@H](NC(=O)OCc2ccccc2)C(=O)Nc2cccc(CN)c2)CC1`, for which the concentration for half-maximal inhibition (IC50) is greater than 99.5 µM.
`Cc1ccc(F)c(-c2ccc([C@@H](NC(=O)OCc3ccccc3)C(=O)Nc3cccc(CN)c3)cc2)c1` gave an IC50 of 9.46 µM. This counts as single-digit micromolar.
Under `NCc1cccc(NC(=O)[C@@H](NC(=O)OCc2ccccc2)c2ccc(-c3cccnc3F)cc2)c1` stands 71.4 µM.
Under `Cn1cc(CN2CCC(c3c[nH]c4cccnc34)CC2)c2ccccc21` stands greater than 99.5 µM; under `O=C(O)CN(c1ccc(Cl)cc1)S(=O)(=O)c1ccc(Oc2ccccc2Cl)cc1`, 86.6 µM.
As to `CCn1nccc1-c1cn(CC)c(=O)c(N2CC[C@@H](CO)C2)n1`, the IC50 is greater than 99.5 µM.
Under `CCn1cc(-c2ccc([C@@H](NC(=O)OCc3ccccc3)C(=O)Nc3cccc(CN)c3)cc2)cn1` stands greater than 99.5 µM.
In turn, `O=Cc1ccc(CC(=O)N2C[C@@H](O)[C@H](N3CCOCC3)C2)cc1` returned a half-inhibitory concentration (IC50) greater than 99.5 µM.
The compound `Cc1nccnc1Oc1ccc(S(=O)(=O)Nc2ccc(Cl)cc2C(=O)O)cc1` gave an IC50 greater than 99.5 µM.
Regarding `NCc1cccc(NC(=O)C2(CNC(=O)OCc3ccccc3)CCCC2)c1`, the half-maximal inhibitory concentration (IC50) is greater than 99.5 µM.
Under `O=C(O)c1cc(Cl)ccc1NS(=O)(=O)c1ccc(OCc2ncccn2)cc1` stands greater than 99.5 µM; under `NC(=O)c1ccc(N2CC[C@@H](CO)C2)cc1`, greater than 99.5 µM; under `O=C(NCC1CC1)[C@H]1CCCC[C@H]1NS(=O)(=O)c1ccc(Oc2ccccc2Cl)cc1`, greater than 99.5 µM.
Under `OC[C@H]1CCN(c2cnc3ccccc3n2)C1` stands greater than 99.5 µM; under `CCn1ccnc(N2C[C@H](c3c[nH]c4ccccc34)[C@H](OC(C)=O)C2)c1=O`, greater than 99.5 µM; under `CCn1cc(-c2ccccc2C(=O)OC)nc(N2CC[C@@H](CO)C2)c1=O`, greater than 99.5 µM.
